In patent US4075192A, “Nonapeptides and methods for their production” (Parke, Davis & Company, priority 1977, dated 1978):
Non-standard residues stand in square brackets, D forms with d. Residues, ends and D or L forms follow the SMILES beside them. No end group written: not given here. *: point of attachment. pGlu = O=C1CC[C@@H](C(=O)O)N1; Orn = NCCC[C@H](N)C(=O)O; Bn = c1ccc(C*)cc1

System: LRF (luteinizing hormone releasing factor) induced luteinizing hormone (LH) release
Assay: In vitro LRF antagonist test in rat anterior pituitary cell cultures
Format: cell-based
Source text: Nonapeptides of this invention were screened for LRF antagonist activity in vitro using rat anterior pituitary cell cultures as described by Vale et al. [Endocrinology, 91, 562 (1972)]. The inhibition of LRF (luteinizing hormone releasing factor) induced luteinizing hormone (LH) release into the culture medium is the endpoint in this in vitro bioassay.

Compound	LH Value (LRF alone, Molar Conc. 2.5×10^-10) [ng/mL]	LH Value (compound Molar Conc. 1×10^-6, LH released into culture medium) [ng/mL]	% LH Release Inhibition (compound Molar Conc. 1×10^-6, inhibition of LRF induced LH release) [%]
LRF Control: luteinizing hormone releasing factor, also referred to as luteinizing hormone releasing hormone, LH-RH; stimulates secretion of luteinizing hormone (QHWSYGLRPG; ends and bridges not checked; UniProt P01148 24-33, looked up) [reference compound]	39.98	–	–
CCNC(=O)[C@@H]1CCCN1C(=O)[C@H](CCCN)NC(=O)[C@H](CC(C)C)NC(=O)[C@@H](C)NC(=O)[C@H](COCc1ccccc1)NC(=O)[C@H](Cc1ccc(OCc2ccccc2)cc1)NC(=O)[C@H](Cc1c[nH]c2ccccc12)NC(=O)[C@@H](Cc1ccccc1)NC(=O)[C@@H]1CCC(=O)N1 [L-pyroglutamyl-D-phenylalanyl-L-tryptophyl-O-benzyl-L-tyrosyl-O-benzyl- L-seryl-D-alanyl-L-leucyl-L-ornithyl-L-proline N-ethylamide] ([pGlu][dF]WY(Bn)S(Bn)[dA]L[Orn]P-NHEt)	–	19.15	61
